{"source": "patent US20210268017A1", "about": "“MOLECULAR HYDROGEN-CONTAINING COMPOSITION FOR PREVENTION AND/OR IMPROVEMENT OF PNEUMONIA” (MiZ Company Limited, priority 2020, published 2021)", "key": {"interstitial pneumonia": {"test_system": "interstitial pneumonia", "conditions": "patient; drip infusion 1 ppm hydrogen 250 ml plus hydrogen gas inhalation (6 to 7%, 120 ml/min) 30 to 60 minutes once weekly for 8 weeks", "protocol": "A patient who was diagnosed as having interstitial pneumonia received a drip infusion of hydrogen (1 ppm hydrogen, 250 ml) and inhalation of hydrogen gas over 30 minutes to 60 minutes once weekly for 8 weeks. MHG-2000α manufactured by MiZ Company Limited (hydrogen gas concentration 6 to 7%, 120 ml/min) was used for inhalation of a hydrogen gas."}, "[1]": {"conditions": "room temperature, normal pressure; also printed as 1.6 mg/L; cited from earlier work"}, "[2]": {"test_system": "chronic bronchitis and obstructive lung bronchitis", "conditions": "mice; earlier study; cited from earlier work"}}}
{"molecule": "[HH]", "note": "[hydrogen, molecular hydrogen]", "values": [{"measurement": "improvement of interstitial pneumonia, confirmed by disappearance of ground-glass opacity in the CT finding", "setting": "interstitial pneumonia", "result": "Significant improvement"}, {"measurement": "concentration of hydrogen dissolved in water", "setting": "[1]", "result": "approximately 1.6 ppm"}, {"measurement": "effect on chronic bronchitis and obstructive lung bronchitis", "setting": "[2]", "result": "improved chronic bronchitis and obstructive lung bronchitis"}]}
